From patent US11712438B2, “Phenyl derivatives as PGE2 receptor modulators” (IDORSIA PHARMACEUTICALS LTD, priority 2017, dated 2023)

Legend:
PTRGER4 (EP4) = PTRGER4 (EP4) (Homo sapiens, UniProt P35408); assay: cell-based;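 note: assay plate preincubated 15 min at 37 °C, after which PGE2 was added at 20 nM final and incubation continued 120 min at 37 °C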
PTGER2 (EP2) = PTGER2 (EP2) (Homo sapiens, UniProt P43116); assay: cell-based
PTGER2 (EP2), sequence (P43116 whole entry): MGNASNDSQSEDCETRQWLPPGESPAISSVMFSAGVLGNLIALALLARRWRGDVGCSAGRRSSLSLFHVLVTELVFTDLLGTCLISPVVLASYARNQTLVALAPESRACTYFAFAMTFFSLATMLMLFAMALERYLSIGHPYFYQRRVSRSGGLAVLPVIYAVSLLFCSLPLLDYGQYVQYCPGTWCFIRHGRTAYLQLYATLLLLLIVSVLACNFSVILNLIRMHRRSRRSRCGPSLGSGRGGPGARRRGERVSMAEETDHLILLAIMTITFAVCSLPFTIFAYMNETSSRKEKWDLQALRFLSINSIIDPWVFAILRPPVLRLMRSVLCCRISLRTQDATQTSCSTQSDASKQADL
From the text: The assay is using the PathHunter™ HEK 293 PTGER2 and PTGER4 b-arrestin cell lines from DiscoverX. The system is based on the Enzyme Fragment Complementation Technology. Two complementing fragments of the b-galactosidase enzyme are expressed within stably transfected cells. The larger portion of b-gal, termed EA for Enzyme Acceptor, is fused to the C-terminus of b-arrestin 2. The smaller fragment, termed ProLink™ tag, is fused to PTGER2 (EP2) or PTRGER4 (EP4) at the C-terminus. Upon activation, b-arrestin is recruited which forces the interaction of ProLink and EA, allowing complementation of the two fragments of b-gal and the formation of a functional enzyme which is capable of hydrolysing the substrate and generating a chemiluminescent signal.
The HEK 293 PTGER2 b-arrestin cells (DiscoverX 93-021-4C1) are detached from culture dishes with a cell dissociation buffer (Invitrogen, 13151-014), and collected in growing medium (GM: DMEM+Glutamax-I (Invitrogen 32430)/10% FCS, 1% Penicilin/streptomycin). 5000 cells per well of a 384 well plate (white with white bottom Greiner 781080) are seeded in 20 ul per well of GM. Plate is incubated at 37° C., 5% CO2 for 24 hours.
Stock solutions of test compounds are made at a concentration of 10 mM in DMSO, and serially diluted in DMSO to concentrations required for inhibition dose response curves (tested concentration range 10 μM-2 nM or 1 μM-0.2 nM).
PGE2 (Cayman 14010, stock solution: 10 mM in DMSO) is used as agonist at 5 μM final concentration, corresponding to EC80.
Five microliters of diluted compounds are transferred into the assay plate. Plate is pre-incubated 15 minutes at 37° C. Then five microliters of PGE2 (final conc. 5 μM) are transferred into the assay plate. Plate is incubated 120 minutes at 37° C.
Twelve μl of reagent are transferred to the assay plate and incubate for 1 hour at room temperature in the dark. Luminescence counts are read on a BMG Fluostar Optima reader according to manufacturer's instructions.
For each compound concentration calculate of the percentage of activity compared to DMSO control value as average±STDEV. (each concentration is measured in duplicate)
When compounds were measured multiple times, mean values are given.

PTRGER4 (EP4), sequence (P35408 whole entry): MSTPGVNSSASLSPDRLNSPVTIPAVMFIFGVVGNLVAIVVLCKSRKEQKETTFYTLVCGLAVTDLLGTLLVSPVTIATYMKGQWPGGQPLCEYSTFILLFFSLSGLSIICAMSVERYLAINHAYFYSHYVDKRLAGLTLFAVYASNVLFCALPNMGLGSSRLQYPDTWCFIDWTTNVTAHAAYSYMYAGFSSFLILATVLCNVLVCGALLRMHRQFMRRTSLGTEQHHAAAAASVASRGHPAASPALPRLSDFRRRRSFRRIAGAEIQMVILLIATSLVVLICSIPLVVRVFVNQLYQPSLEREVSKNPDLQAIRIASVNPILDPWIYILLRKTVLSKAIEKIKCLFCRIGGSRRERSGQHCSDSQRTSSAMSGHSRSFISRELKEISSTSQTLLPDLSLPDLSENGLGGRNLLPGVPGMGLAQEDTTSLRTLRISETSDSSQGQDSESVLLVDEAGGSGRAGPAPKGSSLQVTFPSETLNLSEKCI

SMILES	IC50 (PTRGER4 (EP4)) [nM]	IC50 (PTGER2 (EP2)) [nM]
CCCc1cc(-c2cc(NCCc3c(F)cc(Br)cc3F)ncn2)ccc1C(N)=O [Example 303, 4-{6-[2-(4-Bromo-2,6-difluoro-phenyl)-ethylamino]-pyrimidin-4-yl}-2-propyl-benzamide]	163	44
O=c1c(O)c(-c2ccc(-c3cc(NCCc4c(F)cc(Br)cc4F)ncn3)cc2)c1=O [Example 243, 3-(4-{6-[2-(4-Bromo-2,6-difluoro-phenyl)-ethylamino]-pyrimidin-4-yl}-phenyl)-4-hydroxy-cyclobut-3-ene-1,2-dione]	61	41
Fc1cc(Br)cc(F)c1CCNc1cc(-c2ccc3nccn3c2)ncn1 [Example 309, [2-(4-Bromo-2,6-difluoro-phenyl)-ethyl]-(6-imidazo[1,2-a]pyridin-6-yl-pyrimidin-4-yl)-amine]	875	352
O=C(O)Cc1ccc(-c2cc(NCCc3c(F)cc(Br)cc3F)ncn2)cc1OC(F)(F)F [Example 236, (4-{6-[2-(4-Bromo-2,6-difluoro-phenyl)-ethylamino]-pyrimidin-4-yl}-2-trifluoromethoxy-phenyl)-acetic acid]	351	265
CCOc1cc(-c2cc(NCCc3c(F)cccc3OC)ncn2)sc1C(=O)O [Example 177, 3-Ethoxy-5-{6-[2-(2-fluoro-6-methoxy-phenyl)-ethylamino]-pyrimidin-4-yl}-thiophene-2-carboxylic acid]	343	126
CCn1cc(-c2cc(NCCc3c(F)cc(Br)cc3F)ncn2)cc1C(=O)O [Example 269, 4-{6-[2-(4-Bromo-2,6-difluoro-phenyl)-ethylamino]-pyrimidin-4-yl}-1-ethyl-1H-pyrrole-2-carboxylic acid]	768	258
CCCOc1cc(-c2cc(NCCc3c(C)cc(C)cc3OC)ncn2)ccc1CC(=O)O [Example 204, (4-{6-[2-(2-Methoxy-4,6-dimethyl-phenyl)-ethylamino]-pyrimidin-4-yl}-2-propoxy-phenyl)-acetic acid]	699	433
O=C(O)c1coc2cc(-c3cc(NCCc4c(F)cc(Br)cc4F)ncn3)ccc12 [Example 272, 6-{6-[2-(4-Bromo-2,6-difluoro-phenyl)-ethylamino]-pyrimidin-4-yl}-benzofuran-3-carboxylic acid]	426	174
CCNC(=O)c1ccc(-c2cc(NCCc3c(F)cc(Br)cc3F)ncn2)cc1OCC [Example 299, 4-{6-[2-(4-Bromo-2,6-difluoro-phenyl)-ethylamino]-pyrimidin-4-yl}-2-ethoxy-N-ethyl-benzamide]	255	145
CCOc1cc(-c2cc(NCCc3cc(Cl)c(C(F)(F)F)cc3OC)ncn2)ccc1C(=O)O [Example 195, 4-{6-[2-(5-Chloro-2-methoxy-4-trifluoromethyl-phenyl)-ethylamino]-pyrimidin-4-yl}-2-ethoxy-benzoic acid]	269	837
CCOc1cc(-c2cc(NCCc3cc(C)c(C(F)F)cc3OC)ncn2)ccc1C(=O)O [Example 199, 4-{6-[2-(4-Difluoromethyl-2-methoxy-5-methyl-phenyl)-ethylamino]-pyrimidin-4-yl}-2-ethoxy-benzoic acid]	283	163
CCCc1cc(-c2cc(NCCc3cc(C)c(C)cc3OC)ncn2)ccc1CC(=O)O [Example 192, (4-{6-[2-(2-Methoxy-4,5-dimethyl-phenyl)-ethylamino]-pyrimidin-4-yl}-2-propyl-phenyl)-acetic acid]	193	380
CCOc1c(CC(=O)O)ccc(-c2cc(NCCc3c(F)cc(Br)cc3F)ncn2)c1F [Example 175, (4-{6-[2-(4-Bromo-2,6-difluoro-phenyl)-ethylamino]-pyrimidin-4-yl}-2-ethoxy-3-fluoro-phenyl)-acetic acid]	461	258
CCOc1cc(-c2cc(NCCc3c(C)cc(C)cc3OC)ncn2)ccc1CC(=O)O [Example 202, (2-Ethoxy-4-{6-[2-(2-methoxy-4,6-dimethyl-phenyl)-ethylamino]-pyrimidin-4-yl}-phenyl)-acetic acid]	365	597
NC(=O)Nc1ccc(-c2cc(NCCc3c(F)cc(Br)cc3F)ncn2)cc1 [Example 265, (4-{6-[2-(4-Bromo-2,6-difluoro-phenyl)-ethylamino]-pyrimidin-4-yl}-phenyl)-urea]	452	242
CCOc1cc(-c2cc(NCCc3ccc(OC(F)F)cc3OC)ncn2)sc1C(=O)O [Example 224, 5-{6-[2-(4-Difluoromethoxy-2-methoxy-phenyl)-ethylamino]-pyrimidin-4-yl}-3-ethoxy-thiophene-2-carboxylic acid]	23	37
O=c1[nH]c2ccc(-c3cc(NCCc4c(F)cc(Br)cc4F)ncn3)cc2o1 [Example 266, 6-{6-[2-(4-Bromo-2,6-difluoro-phenyl)-ethylamino]-pyrimidin-4-yl}-3H-benzooxazol-2-one]	368	65

SMILES	IC50 (PTRGER4 (EP4)) [nM]	IC50 (PTGER2 (EP2)) [nM]
O=CNc1ccc(-c2cc(NCCc3c(F)cc(Br)cc3F)ncn2)cc1 [Example 238, N-(4-{6-[2-(4-Bromo-2,6-difluoro-phenyl)-ethylamino]-pyrimidin-4-yl}-phenyl)-formamide]	438	251
CCCOc1cc(-c2cc(NCCc3cc(C)c(C)cc3OC)ncn2)ccc1CC(=O)O [Example 194, (4-{6-[2-(2-Methoxy-4,5-dimethyl-phenyl)-ethylamino]-pyrimidin-4-yl}-2-propoxy-phenyl)-acetic acid]	207	548
COC(=O)Nc1ccc(-c2cc(NCCc3c(F)cc(Br)cc3F)ncn2)cc1 [Example 313, (4-{6-[2-(4-Bromo-2,6-difluoro-phenyl)-ethylamino]-pyrimidin-4-yl}-phenyl)-carbamic acid methyl ester]	333	143
CCCc1cc(-c2cc(NCCc3ccc(C(F)(F)F)cc3OC)ncn2)ccc1C(=O)O [Example 207, 4-{6-[2-(2-Methoxy-4-trifluoromethyl-phenyl)-ethylamino]-pyrimidin-4-yl}-2-propyl-benzoic acid]	491	721
CCOc1cc(-c2cc(NCCc3cc(C)c(C)cc3OC)ncn2)cc(F)c1CC(=O)O [Example 193, (2-Ethoxy-6-fluoro-4-{6-[2-(2-methoxy-4,5-dimethyl-phenyl)-ethylamino]-pyrimidin-4-yl}-phenyl)-acetic acid]	159	797
O=C(O)Cc1ccc(-c2cc(NCCc3c(F)cc(Br)cc3F)ncn2)cc1OC1CC1 [Example 260, (4-{6-[2-(4-Bromo-2,6-difluoro-phenyl)-ethylamino]-pyrimidin-4-yl}-2-cyclopropoxy-phenyl)-acetic acid]	755	204
Fc1cc(Br)cc(F)c1CCNc1cc(-c2ccc3[nH]ccc3c2)ncn1 [Example 258, [2-(4-Bromo-2,6-difluoro-phenyl)-ethyl]-[6-(1H-indol-5yl)-pyrimidin-4-yl]amine]	174	77
CCCc1cc(-c2cc(NCCc3c(C)cc(C)cc3OC)ncn2)ccc1C(=O)O [Example 201, 4-{6-[2-(2-Methoxy-4,6-dimethyl-phenyl)-ethylamino]-pyrimidin-4-yl}-2-propyl-benzoic acid]	482	140
CCOc1cc(-c2cc(NCCc3cc(C)c(C)cc3OC)ncn2)ccc1CC(=O)O [Example 190, (2-Ethoxy-4-{6-[2-(2-methoxy-4,5-dimethyl-phenyl)-ethylamino]-pyrimidin-4-yl}-phenyl)-acetic acid]	181	486
CCCc1cc(-c2cc(NCCc3c(F)cc(Br)cc3F)ncn2)ccc1C(=O)NCCO [Example 306, 4-{6-[2-(4-Bromo-2,6-difluoro-phenyl)-ethylamino]-pyrimidin-4-yl}-N-(2-hydroxy-ethyl)-2-propyl-benzamide]	403	97
CCOc1cc(-c2cc(NCCc3c(F)cc(OC)cc3F)ncn2)ccc1C(=O)O [Example 228, 4-{6-[2-(2,6-Difluoro-4-methoxy-phenyl)-ethylamino]-pyrimidin-4-yl}-2-ethoxy-benzoic acid]	777	502
OCCOc1ccc(-c2cc(NCCc3c(F)cc(Br)cc3F)ncn2)cc1 [Example 311, 2-(4-{6-[2-(4-Bromo-2,6-difluoro-phenyl)-ethylamino]-pyrimidin-4-yl}-phenoxy)-ethanol]	776	216
CCOc1cc(-c2cc(NCCc3cc(F)c(C(F)F)cc3OC)ncn2)ccc1C(=O)O [Example 183, 4-{6-[2-(4-Difluoromethyl-5-fluoro-2-methoxy-phenyl)-ethylamino]-pyrimidin-4-yl}-2-ethoxy-benzoic acid]	661	695
CCOc1cc(-c2cc(NCCc3c(F)cc(Br)cc3F)ncn2)ccc1C(=O)NCC(C)(C)O [Example 302, 4-{6-[2-(4-Bromo-2,6-difluoro-phenyl)-ethylamino]-pyrimidin-4-yl}-2-ethoxy-N-(2-hydroxy-2-methyl-propyl)-benzamide]	565	121
CCOc1cc(C(F)(F)F)ccc1CCNc1cc(-c2ccc(CC(=O)O)c(OCC)c2)ncn1 [Example 214, (2-Ethoxy-4-{6-[2-(2-ethoxy-4-trifluoromethyl-phenyl)-ethylamino]-pyrimidin-4-yl}-phenyl)-acetic acid]	62	184
COc1cc(C(F)(F)F)ccc1CCNc1cc(-c2ccc(C(=O)O)c(SC)c2)ncn1 [Example 206, 4-{6-[2-(2-Methoxy-4-trifluoromethyl-phenyl)-ethylamino]-pyrimidin-4-yl}-2-methylsulfanyl-benzoic acid]	372	315
CCCc1cc(-c2cc(NCCc3ccc(OC(F)F)cc3OC)ncn2)ccc1C(=O)O [Example 222, 4-{6-[2-(4-Difluoromethoxy-2-methoxy-phenyl)-ethylamino]-pyrimidin-4-yl}-2-propyl-benzoic acid]	286	231
